Reference: patent publication US9750728B2, “Method and pharmaceutical composition for inhibiting PI3K/AKT/mTOR signaling pathway” (TARGETED THERAPEUTICS, LLC, priority 2012, dated 2017)
Entries after “also recorded” stand apart in the source; their conditions may differ.

Experiments:
Type in all cases: cell-based
A549 = assay: MTT cell viability assay; conditions: A549, different doses, 4 days
Procedure: (§1) 1.1. ZPP and Y29794 induces cytotoxicity to cancer cells by MTT analysis of cell viability. Cells were placed in 96-well plates (3×10^3 cells/well) in octuplicate. The cells were then treated with vehicle or different doses of ZPP for 4 days. Cells were then loaded with 1.2 mM MTT (4,5-Dimethylthiazol-2-vn-2,5-diphenvltetrazolium bromide, a yellow tetrazole) in phenol red-free medium for 4 hours. The cells were then lysed in 10% SDS/0.01M HCL. MTT absorbance (570 nm spectrum) was measured by a microplate reader. The relative absorbance is normalized to the control (vehicle-treated) to indicate relative cell viability. ZPP was purchased from Biomol (Plymouth Meeting, Pa., USA). MTT was purchased from Sigma-Aldrich. Panc-1 and Capan-1 pancreatic cancer cell line, MCF7 and T47D breast cancer cell lines, A549 and HI 703 lung cancer Cell lines were purchased from American Type Culture Collection (ATCC, USA) preparation of pancreatic cancer cell line PK-9 have been disclosed, e.g., Kobari M et al, (1986) Tohoku J Exp Med. 150: 231-248; Etoh T et al, (2003) Clin Cancer Res 9; 1218; Arafat H. et al, (2011) Surgery 150 (2): 306-315. Cells were grown in Dulbecco's Modified. Eagle's (DMEM) medium (Invitrogen, Carlsbad, Calif.) containing 10% fetal bovine serum (FBS) (Hyclone, purchased from Thermo Fisher Scientific, Inc). […] In similar experiments, the cells were treated with different doses of Y29794 for 4 days and analyzed for MTT absorbance. Y29794 oxalate was purchased from Tocris Biosciences (Bristol, UK).

AsPC-1 = assay: MTT cell viability assay; conditions: AsPC-1, different doses, 4 days
Procedure: as §1

Capan-1 = assay: MTT cell viability assay; conditions: Capan-1, different doses, 4 days
Procedure: as §1

H1703 = assay: MTT cell viability assay; conditions: H1703, different doses, 4 days
Procedure: as §1

MCF7 = assay: MTT cell viability assay; conditions: MCF7, different doses, 4 days
Procedure: as §1

MDAMB231 = assay: MTT cell viability assay; conditions: MDAMB231, different doses, 4 days
Procedure: as §1

PK-9 = assay: MTT cell viability assay; conditions: PK-9, different doses, 4 days
Procedure: as §1

TD47 = assay: MTT cell viability assay; conditions: TD47, different doses, 4 days
Procedure: as §1

PI3K [1] = assay: PI3K kinase assay in anti-p85 immunoprecipitates; conditions: Panc-1, 24 hours
Procedure: (§2) PI3K kinase assay kit (Calbiochem, Bilerica, Mass., USA) was used to measure the IRS-1-associated or p85-associated PI3K kinase activity in cells. The indicated cells were treated with different conditions for 24 hours. The cells were rinsed three times with pre-cooled PBS, lysed in 500 μl of lysis buffer (150 mmol/L Nacl, 1% Triton-x-100, 50 mmol/1 Tris (pH8.0, 1 mmol/L PMSF, 1 μg/L aprotinin, 1 μg/Lleupeptin, 1 μg/L peptain). Cell lysates (500 μg, in triplicate) of were used for anti-IRS-1 or anti-p85 immunoprecipitation. The immunoprecipitates were resuspended in 200 μl assay buffer and mixed with the fluorescence-labeled PI3K substrate BODIPY-TMR-phosphatidylinositol (100 μM) and ATP (37° C.) for 1 hour. The fluorescence intensity was measured with a fluorometer (excitation wavelength of 540 nm, emission wavelength […]). The difference between fluorescence intensity between control immunoprecipitates (no lysates) and lysate immunoprecipitates was used to indicate PI3K kinase activity. IR-1 anti-rabbit antibody and rabbit anti-PI3K p85 antibody were purchased from Millipore Corporation (Billerica, Mass., USA). Panc-1 anti-p85 immunoprecipitates were used for PI3K kinase assay (FIG. 12) and immunoblot analysis (FIG. 12). Rapamycin treatment in control cells increased PI3K kinase activity (P<0.01).

PI3K [2] = assay: PI3K kinase assay in anti-IRS-1 immunoprecipitates; conditions: Panc-1, 24 hours; ZPP 200 μM, Y29794 0.5 μM or rapamycin alone
Procedure: as §2, with “(P<0.01). […]” for “(P<0.01).”

[3] = test system: mTOR (S2448) phosphorylation; assay: Immunoblot analysis of mTOR phosphorylation; conditions: Panc-1; rapamycin, or Y29794 1 μM (FIG. 19D)
Procedure: Mouse anti-PRCP antibody was purchased from Abcam (Cambridge, Mass., USA). Goat anti-PREP antibody was purchased from R&D Systems (Minneapolis, Minn., USA). Mouse anti-R-actin antibody antibodies was from Santa Cruz Biotechnology (Santa Cruz, Calif., USA). Panc-1 pancreatic cancer cells and MCF7 breast cancer cells were cultured to 80% confluence, cells were rinsed three times with pre-cooled PBS, 500 μl of lysis buffer (150 mmol/L Nacl, 1% Triton-x-100, 50 mmol/l TrispH8.0, 1 mmol/L PMSF, 1 ug/L aprotinin, 1 ug/L leupeptin, 1 ug/L peptain) was added to the cells. Cells were scraped and transferred to a centrifuge tube with a pipette. The lysates were spun in a microcentrifuge at maximal speed for 10 minutes at 4° C. to get rid of the insoluble fraction. Protein concentration was determined by Bradford assay. For immunoprecipitation: 2-5 ug protein-specific antibodies were added to 250-500 ug of lysates in a tube and incubated on an ordital shaker 4° C. for 2-4 hours with moderate shaking, then 20 ul Protein G beads (Santa Cruz Biotechnology (Santa Cruz, Calif., USA.) were added and the mixture was incubated with moderate shaking for another hour. After washing the beads in lysis buffer five times, the immunoprecipitates were boiled in 2× Laemmli sample buffer (50 mmoL/L Tris-HCL (pH8.0), 100 mmoL/L DTT, 2% SDS, 0.1% bromophenol blue, 10% glycerol) for five minutes. The proteins were separated by conventional SDS-polyacrylamide gel electrophoresis (SDS-PAGE) electrophoresis and transferred to Amersham Hybond-P PVDF membrane (GE Company, Pittsburgh, Pa., USA). For immunoblot, the membrane was blocked in 2% BSA in TBST buffer (Tris 1.21 g+NaCl 5.84 g+800 ml H2O adjusted to pH 8.0 with HCl) for one hour and then incubated with primary antibodies in TBST at room temperature (22-25° C.) for 2 hours. After washing three times with TBST, the membrane was incubated with HRP-conjugated secondary antibodies for 0.5 hours at room temperature. […]

Question: `CC(C)c1ccc(C(=O)c2cccs2)c(SCCCCCCCCN(C)C)n1` [Y29794, [2-[8-(dimethylamino)octylsulfanyl]-6-propan-2-ylpyridin-3-yl]-thiophen-2-ylmethanone] was tested. Which “MTT absorbance (relative cell viability)” value (A549) did it give?
Answer: The value was “dose-dependent cytotoxicity”.

Question: And the “MTT absorbance (relative cell viability)” value (AsPC-1)?
Answer: Its value is “dose-dependent cytotoxicity”.

Question: What about the “MTT absorbance (relative cell viability)” value (Capan-1) of the same molecule?
Answer: Its value is “dose-dependent cytotoxicity”.

Question: What about the “MTT absorbance (relative cell viability)” value (H1703) of the same molecule?
Answer: Its value is “dose-dependent cytotoxicity”.

Question: And the “MTT absorbance (relative cell viability)” value (MCF7)?
Answer: The value was “dose-dependent cytotoxicity”.

Question: And the “MTT absorbance (relative cell viability)” value (MDAMB231)?
Answer: The value was “dose-dependent cytotoxicity”.

Question: And the “MTT absorbance (relative cell viability)” value (PK-9)?
Answer: Its value is “dose-dependent cytotoxicity”.

Question: And the “MTT absorbance (relative cell viability)” value (TD47)?
Answer: Its value is “dose-dependent cytotoxicity”.

Question: And the “PI3K kinase activity (p85-associated)” value (PI3K [1]; ZPP 200 μM, Y29794 0.5 μM or rapamycin alone, vs vehicle)?
Answer: Its value is “reduced; also recorded: significantly lower”.

Question: What about the “rapamycin-induced increase in PI3K kinase activity (p85-associated)” value (PI3K [1]; rapamycin with ZPP 200 μM or Y29794 0.5 μM) of the same molecule?
Answer: Its value is “blocks; also recorded: inhibited”.

Question: What about the “IRS-1-associated PI3K activity” value (PI3K [2]) of the same molecule?
Answer: Its value is “reduce; also recorded: decreased”.

Question: What about the “mTOR (S2448) phosphorylation” value [3] of the same molecule?
Answer: The value was “without affecting”.
